In patent publication US7880007B2, “Bicyclic substituted phenyl piperidine modulators of muscarinic receptors” (Vertex Pharmaceuticals Incorporated, priority 2004, dated 2011):

Experiments:
Type in all cases: cell-based
M2 muscarinic receptor = biological target: T1, M2 muscarinic receptor (Homo sapiens, UniProt P08172); experiment: Functional mobilization of intracellular calcium (FLIPR), M2-CHO cells; details: for Emax: 100% efficacy = maximum response obtained with the Carbachol control; for M2 Activity: M2-CHO cells, calcium mobilization (FLIPR)
T1 construct: expressed in transfected cells; host or cells: CHO (M2-CHO)
T1 sequence (P08172 1-466): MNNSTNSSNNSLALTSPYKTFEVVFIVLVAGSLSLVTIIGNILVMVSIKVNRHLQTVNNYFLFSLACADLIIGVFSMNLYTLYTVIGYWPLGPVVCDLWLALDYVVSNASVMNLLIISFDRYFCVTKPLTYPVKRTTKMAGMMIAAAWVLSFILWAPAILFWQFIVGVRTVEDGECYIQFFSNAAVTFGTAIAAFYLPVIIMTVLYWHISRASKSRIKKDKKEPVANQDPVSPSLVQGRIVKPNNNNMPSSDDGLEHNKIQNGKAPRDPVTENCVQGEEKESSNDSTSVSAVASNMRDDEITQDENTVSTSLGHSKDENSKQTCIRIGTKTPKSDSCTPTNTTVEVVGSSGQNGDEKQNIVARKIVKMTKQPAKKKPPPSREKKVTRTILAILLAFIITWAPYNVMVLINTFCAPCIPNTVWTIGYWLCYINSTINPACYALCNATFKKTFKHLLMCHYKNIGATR
How it was run: (§1)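 CHO cells expressing human M1–M4 receptors loaded with Fluo-3 AM or Calcium 3 dye (1 mM probenecid, pH 7.4); 0.5% DMSO final. Agonist mode: compound added directly; antagonist mode: 15 min pre-incubation or co-application, then carbachol at EC80. Fluorescence read 60 s on FLIPR; efficacy relative to carbachol maximum.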

M1 muscarinic receptor = biological target: T2, M1 muscarinic receptor (Homo sapiens, UniProt P11229); experiment: Functional mobilization of intracellular calcium (FLIPR), M1-CHO cells; details: for Emax: 100% efficacy = maximum response obtained with the Carbachol control; for M1 Activity: M1-CHO cells, calcium mobilization (FLIPR)
T2 construct: expressed in transfected cells; host or cells: CHO (M1-CHO)
T2 sequence (P11229 1-460): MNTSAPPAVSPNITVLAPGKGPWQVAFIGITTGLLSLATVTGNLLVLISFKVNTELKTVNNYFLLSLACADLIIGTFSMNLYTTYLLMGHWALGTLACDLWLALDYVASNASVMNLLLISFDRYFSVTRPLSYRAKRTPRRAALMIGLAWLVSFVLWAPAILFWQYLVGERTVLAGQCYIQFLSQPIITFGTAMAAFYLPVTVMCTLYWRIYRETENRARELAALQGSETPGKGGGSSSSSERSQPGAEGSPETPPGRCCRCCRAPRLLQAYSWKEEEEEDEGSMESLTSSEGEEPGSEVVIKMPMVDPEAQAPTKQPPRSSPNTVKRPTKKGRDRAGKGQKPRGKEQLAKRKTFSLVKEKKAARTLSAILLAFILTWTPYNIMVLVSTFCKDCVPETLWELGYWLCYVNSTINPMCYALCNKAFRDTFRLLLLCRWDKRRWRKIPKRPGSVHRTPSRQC
How it was run: as §1

M4 muscarinic receptor = biological target: T3, M4 muscarinic receptor (Homo sapiens, UniProt P08173); experiment: Functional mobilization of intracellular calcium (FLIPR), M4-CHO cells; details: for Emax: 100% efficacy = maximum response obtained with the Carbachol control; for M4 Activity: M4-CHO cells, calcium mobilization (FLIPR)
T3 construct: expressed in transfected cells; host or cells: CHO (M4-CHO)
T3 sequence (P08173 1-479): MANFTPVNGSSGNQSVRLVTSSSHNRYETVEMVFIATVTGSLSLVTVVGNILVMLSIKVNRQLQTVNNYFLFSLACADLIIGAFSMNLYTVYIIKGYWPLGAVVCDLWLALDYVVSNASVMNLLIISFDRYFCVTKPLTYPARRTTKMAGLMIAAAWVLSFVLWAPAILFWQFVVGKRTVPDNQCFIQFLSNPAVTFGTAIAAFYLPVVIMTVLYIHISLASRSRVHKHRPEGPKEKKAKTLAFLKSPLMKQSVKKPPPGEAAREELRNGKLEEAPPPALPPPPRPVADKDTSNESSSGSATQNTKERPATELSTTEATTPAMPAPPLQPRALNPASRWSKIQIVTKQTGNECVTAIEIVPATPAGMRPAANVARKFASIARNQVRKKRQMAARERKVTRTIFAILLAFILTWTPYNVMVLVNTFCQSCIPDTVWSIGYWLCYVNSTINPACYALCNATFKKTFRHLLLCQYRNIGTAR
How it was run: as §1

M3 muscarinic receptor = biological target: T4, M3 muscarinic receptor (Homo sapiens, UniProt P20309); experiment: Functional mobilization of intracellular calcium (FLIPR), M3-CHO cells; details: for Emax: 100% efficacy = maximum response obtained with the Carbachol control; for M3 Activity: M3-CHO cells, calcium mobilization (FLIPR)
T4 construct: expressed in transfected cells; host or cells: CHO (M3-CHO)
T4 sequence (P20309 whole entry): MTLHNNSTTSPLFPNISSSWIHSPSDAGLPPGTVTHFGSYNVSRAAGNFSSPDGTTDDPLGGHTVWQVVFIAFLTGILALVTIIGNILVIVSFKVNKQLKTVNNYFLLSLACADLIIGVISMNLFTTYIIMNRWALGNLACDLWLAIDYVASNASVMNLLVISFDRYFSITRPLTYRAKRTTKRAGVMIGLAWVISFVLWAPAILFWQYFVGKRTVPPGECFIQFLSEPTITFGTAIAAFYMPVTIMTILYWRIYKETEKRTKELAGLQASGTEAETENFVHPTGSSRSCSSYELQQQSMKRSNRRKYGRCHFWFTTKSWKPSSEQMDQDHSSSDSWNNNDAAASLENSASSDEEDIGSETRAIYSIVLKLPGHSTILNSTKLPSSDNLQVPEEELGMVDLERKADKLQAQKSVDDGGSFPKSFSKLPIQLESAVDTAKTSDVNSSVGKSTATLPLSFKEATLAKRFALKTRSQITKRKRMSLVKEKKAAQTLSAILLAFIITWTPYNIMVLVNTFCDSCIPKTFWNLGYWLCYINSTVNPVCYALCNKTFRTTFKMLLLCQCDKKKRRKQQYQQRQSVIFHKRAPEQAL
How it was run: as §1

| SMILES | Emax (M2 muscarinic receptor) | M2 Activity (M2 muscarinic receptor) | Emax (M1 muscarinic receptor) | M1 Activity (M1 muscarinic receptor) | Emax (M4 muscarinic receptor) | M4 Activity (M4 muscarinic receptor) | Emax (M3 muscarinic receptor) | M3 Activity (M3 muscarinic receptor) |
| --- | --- | --- | --- | --- | --- | --- | --- | --- |
| Fc1cccc(C2CCN(C3C[C@H]4CC[C@H]3C4)CC2)c1F (stereo partly shown) [Compound 276] | < 25% | + (activity was measured to be greater than 5.0 μM) | 25 to 100% | + (activity was measured to be greater than 5.0 μM) | 25 to 100% | ++ (activity was measured to be from 1.0 μM to 5.0 μM) | < 25% | + (activity was measured to be greater than 5.0 μM) |
| COc1ccc(-c2cccc(C)c2)cc1C1CCN([C@H]2C[C@H]3CC[C@H]2C3)CC1 [Compound 277] | < 25% | + (activity was measured to be greater than 5.0 μM) | < 25% | + (activity was measured to be greater than 5.0 μM) | < 25% | + (activity was measured to be greater than 5.0 μM) | < 25% | + (activity was measured to be greater than 5.0 μM) |
| COc1ccc(Cl)cc1C1CCN(CC2CC3CCC2CC3)CC1 (stereo not shown) [Compound 280] | < 25% | + (activity was measured to be greater than 5.0 μM) | < 25% | + (activity was measured to be greater than 5.0 μM) | 25 to 100% | ++ (activity was measured to be from 1.0 μM to 5.0 μM) | < 25% | + (activity was measured to be greater than 5.0 μM) |
| Cc1ccccc1C1CCN(C2CCOCC2)CC1 [Compound 281] | < 25% | + (activity was measured to be greater than 5.0 μM) | 25 to 100% | + (activity was measured to be greater than 5.0 μM) | 25 to 100% | +++ (activity was measured to be less than 1.0 μM) | < 25% | + (activity was measured to be greater than 5.0 μM) |
| CCC(=O)c1ccc(OC)c(C2CCN([C@H]3C[C@H]4CC[C@H]3C4)CC2)c1 [Compound 282] | < 25% | + (activity was measured to be greater than 5.0 μM) | < 25% | + (activity was measured to be greater than 5.0 μM) | 25 to 100% | ++ (activity was measured to be from 1.0 μM to 5.0 μM) | < 25% | + (activity was measured to be greater than 5.0 μM) |
| Cc1cccc(-c2ccccc2C2CCN([C@H]3C[C@H]4CC[C@H]3C4)CC2)c1 [Compound 283] | < 25% | + (activity was measured to be greater than 5.0 μM) | < 25% | + (activity was measured to be greater than 5.0 μM) | 25 to 100% | ++ (activity was measured to be from 1.0 μM to 5.0 μM) | < 25% | + (activity was measured to be greater than 5.0 μM) |
| COc1ccc(-c2ccc3c(c2)OCO3)cc1C1CCN(C2C[C@@H]3CC[C@@H]2C3)CC1 (stereo partly shown) [Compound 284] | < 25% | + (activity was measured to be greater than 5.0 μM) | 25 to 100% | + (activity was measured to be greater than 5.0 μM) | 25 to 100% | + (activity was measured to be greater than 5.0 μM) | 25 to 100% | + (activity was measured to be greater than 5.0 μM) |
| CNC(=O)c1ccc(-c2ccc(OC)c(C3CCN(C4CCOCC4)CC3)c2)cc1 [Compound 285] | < 25% | + (activity was measured to be greater than 5.0 μM) | < 25% | + (activity was measured to be greater than 5.0 μM) | < 25% | + (activity was measured to be greater than 5.0 μM) | < 25% | + (activity was measured to be greater than 5.0 μM) |
| COc1ccc(C#CC2(O)CCCC2)cc1C1CCN([C@H]2C[C@H]3CC[C@H]2C3)CC1 [Compound 287] | < 25% | + (activity was measured to be greater than 5.0 μM) | < 25% | + (activity was measured to be greater than 5.0 μM) | 25 to 100% | +++ (activity was measured to be less than 1.0 μM) | < 25% | + (activity was measured to be greater than 5.0 μM) |
| CCOC(=O)N1CCC(N2C3CCC2CC(c2ccccc2OC)C3)CC1 (stereo not shown) [Compound 289, ethyl 4-(3-(2-methoxyphenyl)-8-azabicyclo-[3.2.1]octan-8-yl)piperidine-1-carboxylate] | < 25% | + (activity was measured to be greater than 5.0 μM) | < 25% | + (activity was measured to be greater than 5.0 μM) | 25 to 100% | ++ (activity was measured to be from 1.0 μM to 5.0 μM) | < 25% | + (activity was measured to be greater than 5.0 μM) |
| Cc1ccc(F)c(C2CCN(C3C[C@H]4CC[C@H]3C4)CC2)c1 (stereo partly shown) [Compound 290] | 25 to 100% | + (activity was measured to be greater than 5.0 μM) | 25 to 100% | ++ (activity was measured to be from 1.0 μM to 5.0 μM) | 25 to 100% | ++ (activity was measured to be from 1.0 μM to 5.0 μM) | < 25% | + (activity was measured to be greater than 5.0 μM) |
| COc1ccccc1C1CCN(CC2=CC[C@@H]3C[C@@H]2C3(C)C)CC1 [Compound 291] | < 25% | + (activity was measured to be greater than 5.0 μM) | < 25% | + (activity was measured to be greater than 5.0 μM) | < 25% | + (activity was measured to be greater than 5.0 μM) | < 25% | + (activity was measured to be greater than 5.0 μM) |
| COc1ccc(F)cc1C1(OC)CCN(C[C@H]2C[C@H]3C=C[C@H]2C3)CC1 [Compound 292] | 25 to 100% | ++ (activity was measured to be from 1.0 μM to 5.0 μM) | 25 to 100% | ++ (activity was measured to be from 1.0 μM to 5.0 μM) | 25 to 100% | +++ (activity was measured to be less than 1.0 μM) | < 25% | + (activity was measured to be greater than 5.0 μM) |
| Fc1ccc(-c2ccccc2C2CCN([C@H]3C[C@H]4CC[C@H]3C4)CC2)cc1 [Compound 294] | < 25% | + (activity was measured to be greater than 5.0 μM) | < 25% | + (activity was measured to be greater than 5.0 μM) | 25 to 100% | ++ (activity was measured to be from 1.0 μM to 5.0 μM) | < 25% | + (activity was measured to be greater than 5.0 μM) |
